Measured values reported in patent US12473276B2, “Compound having neuroprotective effect, preparation method therefor and use thereof” (Shanghai Zhimeng Biopharma, Inc., priority 2019, dated 2025).
Where “and” joins values, the source holds several entries; their conditions need not be identical. Equal entries are not always repeated.

Tested on: rat focal cerebral ischemia-reperfusion model (Middle cerebral artery occlusion, MCAO)
Assay: Protective effect on focal cerebral ischemia reperfusion (MCAO) in rats: cerebral infarction area by TTC staining
Format: in vivo, Sprague Dawley (SD) rat
Details: for Cerebral infarction area in rats (%): 2.0 h ischemia then reperfusion, mean ± standard error; for Effect on reducing the cerebral infarct area in model rats compared with the model group (significance): P<0.05 significant; for Compared with the model group, the reduced proportion of cerebral infarction area in the compound group: versus model group of the same test
Experimental: Sprague Dawley (SD) rat, male, SPF grade, weight 250-280 g
• Compounds 04007, 04015, 04041, 04047, 04050 and 04089 • Commercially available edaravone injection, products of Nanjing Simcere dongyuan pharmaceutical Co., Ltd, specifications 10 mg/mL 1.3 Experimental Method 1.3.1 Preparation of Focal Cerebral Ischemia-Reperfusion Model
The rat focal cerebral ischemia-reperfusion model (Middle cerebral artery occlusion, MCAO) was prepared by internal carotid artery suture method. Rats were injected intraperitoneally with 7% chloral hydrate (6.0 mL/kg), and the depth of anesthesia was appropriate for severe stimulation of animals with slight reaction. The anesthetized rats were tightened with rubber bands on the limbs (the hind limbs were fixed above the knee joint, and the forelimbs were fixed above the wrist joint) and the head, and the animals were fixed on the operating table in the supine position, and the animal shaver was used from the head end to the chest to shave hair, and the skin was disinfected with alcohol. The neck was cut in the middle and the subcutaneous tissue was blunt separated. […] The arterial shell was opened, the right carotid bifurcation was exposed, and the right common carotid artery, external carotid artery, internal carotid artery were separated, the vagus nerve was gently peeled off, the external carotid artery was ligated and cut off. The end of the common carotid artery proximity to the heart was clamped, and an incision was made from the distal end of the ligature line of the external carotid artery, suture was inserted and entered into the internal carotid artery through the bifurcation of the common carotid artery, and then slowly inserted until there was slight resistance (about 20 mm from the bifurcation), all blood supply of the middle cerebral artery was blocked. The suture was slightly fixed with the silk under the incision of the external carotid artery, the clamping silk at the end of the common carotid artery proximity to the heart was loosen, the wound surface was covered with gauze soaked with disinfected normal saline, and the rats were kept warm by placing on the heat preservation mat. After right cerebral ischemia for 2.0 h, the suture was gently pulled out, blood supply was restored for reperfusion, the external carotid artery was ligated with the silk fixing the suture, the skin was sutured, and disinfected.
The experimental animals were divided into model group, edaravone group (6 mg/kg) and compound to be tested group (5 mg/kg ration of compound to be tested: 5% DMAC+5% Solutol HS 15+90% Saline were used to prepare a solution with a concentration of 1 mg/mL.
After the ischemia model was prepared, the animals were assigned to each group in a single blind with equal probability. The animals were administered intravenously once immediately after reperfusion, and the animals in the model group were given the same volume of normal saline. The animals were sacrificed 24 hours after ischemia, the brain was taken, stained and photographed to determine the area of cerebral infarction.
The degree of cerebral infarction was determined by TTC, staining. After the evaluation of the symptoms of neurological defects in animals was completed, the animals were killed with CO2, the brain was taken by decapitation, the olfactory bulb, cerebellum and low brainstem were removed, blood stains on the surface of the brain were washed with normal saline, residual water stains on the surface were sucked out, and placed at −20° C. for 20 min. Immediately after taking out, the coronal section was made vertically downward at the intersection plane of the line of sight, and cut a slice every 2 mm backwards, the brain slices were incubated in 1% TTC dye solution (37° C. for 20 min). The normal brain tissue was dyed crimson, while the ischemic brain tissue was pale. […]

[1] = compound 5 mg/kg intravenously once immediately after reperfusion, measured 24 hours after ischemia
[2] = compound 5 mg/kg versus edaravone 6 mg/kg

SMILES | Cerebral infarction area in rats (%) [1] [%] | Effect on reducing the cerebral infarct area in model rats compared with the model group (significance) (compound 5 mg/kg i.v.) | Compared with the model group, the reduced proportion of cerebral infarction area in the compound group (compound 5 mg/kg i.v.) [%] | Efficacy compared with the positive control drug edaravone group [2] | Cerebral infarction area in rats (%) (compound 0.5 mg/kg intravenously once immediately after reperfusion, measured 24 hours after ischemia) | Effect on reducing the cerebral infarct area in model rats compared with the model group (significance) (compound 0.5 mg/kg i.v.) | Compared with the model group, the reduced proportion of cerebral infarction area in the compound group (compound 0.5 mg/kg i.v.) [%] | Efficacy compared with the positive control drug edaravone group (compound 0.5 mg/kg versus edaravone 6 mg/kg) | Cerebral infarction area of rats in edaravone group in the same test(%) (edaravone 6 mg/kg intravenously once immediately after reperfusion, measured 24 hours after ischemia, one value per test run)
CN1CC(OC(=O)c2ccc(N3Cc4cc(Cl)cc(Cl)c4OC3=S)cn2)C1 [Compound 04007] | 35.41 ± 3.71 | significantly reduce the cerebral infarct area | 26 | equivalent or better efficacy | – | – | – | – | –
CCOC(=O)c1ccc(Cn2c(=S)oc3c(Cl)cc(Cl)cc32)cc1O [Compound 04041] | 30.37 ± 4.36 | significantly reduce the cerebral infarct area | 37 | equivalent or better efficacy | – | – | – | – | –
CC(C)OC(=O)c1ccc(N2COc3c(Cl)cc(Cl)cc3C2)cn1 [Compound 04047] | 35.47 ± 5.34 | no significant effect on reducing the cerebral infarct area | 15 | – | – | – | – | – | –
C#CCCOC(=O)c1ccc(N2Cc3cc(Cl)cc(Cl)c3OC2=S)cn1 [Compound 04050] | 30.97 ± 4.33 | significantly reduce the cerebral infarct area | 26 | equivalent or better efficacy | – | – | – | – | –
CCOCCOC(=O)c1ccc(N2Cc3cc(Cl)cc(Cl)c3OC2=S)cn1 [Compound 04089] | – | – | – | – | 27.80 ± 2.22 | significantly reduce the cerebral infarct area | 34 | equivalent or better efficacy | –
CC1=NN(c2ccccc2)C(=O)C1 [edaravone, reference compound] | – | – | – | – | – | – | – | – | 32.08% and 27.44% and 28.47% and 32.45%
